In US10550130B2, “Benzo-thiazolo-imidazole compounds and uses thereof” (KING SAUD UNIVERSITY, priority 2015, dated 2020):

Key:
MCF-7 cells = assay: Flow cytometric analysis of cellular DNA content (cell cycle distribution); assay type: cell-based; details: 20 μM, 8, 16, 12 and 48 h
Protocol: 2×10^6 cells were fixed in 1 ml ethanol (70%) for 60 min at room temperature. Harvested cells were resuspended in 1 ml Na citrate (50 mM) containing 250 μg RNase A and incubated at 50° C. for 60 min. Next, cells were resuspended in the same buffer containing 4 μg propidium iodide (PI) and incubated for 30 min before being analyzed by flow cytometry (Becton Dickinson, San. Jose, Calif., USA). The percentage of cells in various cell cycle phases was determined by using Cell Quest Pro software (Becton Dickinson).
To gain insight into the mechanism by which anti-proliferation was achieved, the effect on cell cycle distribution was investigated by fluorescence-activated cell sorting (FACS) analysis. […] This was also accompanied by a compensatory decrease in G1 phase cells. Based on histograms the compound blocks the cells on early stage of mitosis, thereby inhibiting the transition of the cells to complete mitosis.

[1] = Apparent toxicity (body weight, general signs) in tumor-bearing mice; assay type: in vivo; details: 200 mg/kg intraperitoneal, three doses
Protocol: (§1) Nude mice (Jackson Laboratories, Bar Harbor, Me., USA) were injected with 4×10^6 cells of MDA-MB-468 in the mammary pad and tumor size was measured weekly using a caliper. When the tumor reached approximately 100 mm^3 diameter the mice were divided into a control group and a group treated with KSA-101696 200 mg/kg via intraperitoneal injection (three cycles every four days). Apparent toxicity as determined by body weight loss is recorded by measuring total body weight. Breeding, care and sacrifice of the animals were carried out in accordance with the protocols approved by the Animal Care and Use Committee of the King Faisal Specialist Hospital and Research Centre.
(§2) Because of the observed selective cytotoxic effect of compound KSA-101696 against cancer cells and the tolerance of normal cells and normal stem cells in vitro, a high dose of compound KSA-101696 (200 mg/kg) was used on mice.

[2] = Determination of LD50 value
Protocol: Swiss Webster Albino mice were housed in groups of 2 or 4 in elevated steel wire-mesh cages in a controlled room maintained at a temperature of 22±2° C., relative humidity of 50±10% and a 12 h light-dark cycle. Rodent diet chow (feed) provided by Grain Silos Flour Mills Organization, Riyadh, Saudi Arabia, and tap water for drinking were made available ad lib.
Male mice were divided into various groups (n=10 animals per group). Each group was administered a different dose of the respective compound via the intraperitoneal (i.p.) route. The dose range used was 100-5000 mg/kg.
During the observation periods there was a continuous record of any behavioral changes and clinical symptoms that caused by effects on the central and autonomic nervous systems, the respiratory and the cardiovascular systems or any other action on the gastrointestinal tract, the renal systems, eye, skin, skeletal muscles etc.
During the 72 hour observation period the number of animals that died in every group was recorded. The percentage of death calculated and converted to probits to calculate the LD50 value for each compound in mg/kg. The LD50 value reported in this study provided compounds in their liquid form in the provided concentrations.

HT-29 colon cancer cells = assay: CD133 expression by flow cytometry; assay type: cell-based; details: 10 μM, 48 h
Protocol: In a further experiment, HT-29 colon cancer cells were cultured in 6 well plates and treated by KSA-101696 (10 μM) or vehicle for 48 h. Then, cells were collected and stained with a CD133 antibody and analyzed by flow cytometry.

[3] = tested on: ALDH-positive SKBR3 cells; assay: Aldefluor assay (ALDH-positive cells); assay type: cell-based
Protocol: SKBr3 cells with or without treatment harvested, washed and incubated in aldefluor assay buffer containing an ALDH substrate (BAAA). For negative control, half of the cells of each sample was removed to another FACS tube and incubated under identical condition with DEAB (diethylaminobenzaldehyde), a specific inhibitor of ALDH enzyme.
Because SKBR3 cells include, among various cell lines tested, a particularly high percentage of ALDH-positive cells, SKBR3 cells were selected to evaluate whether KSA-101696 inhibits ALDH-positive cells in vitro.
After two days of treatment with 2.5 μM of KSA-101696, a more that 50% reduction in ALDH-positive cell percentage was observed (FIG. 5A).

MDA-MB-468 tumors = assay: Antitumor activity in mice; assay type: in vivo, Nude mice
Protocol: as §1, §2

MDA-MB-468 = assay: Cell proliferation by 3H-thymidine uptake assay; assay type: cell-based; details: Homo sapiens, 72 h, read-out: IC50, growth inhibition (3H-thymidine uptake)
Protocol: (§3) In vitro antitumor activity of the compound was assessed by ^3H-thymidine uptake. The cells were treated and they were about 60% confluent. Cells were seeded at 4×10^3 cells per well in a 96 well plate in DMEM containing 10% FBS for 24 h followed by treatment with control media (0.1% DMSO) or media containing different concentration of the compound incubated for 72 h at 37° C. in 5% CO2. Cells were labelled by addition of ^3H-thymidine (Amersham, Chiltern Hills, London, UK) at 1 μCi/well for 18 h before harvesting. ^3H-thymidine uptake was measured using a 1450 Micro Beta PLUS liquid scintillation counter (Wallac, Waltham, Mass., USA).
(§4) In another experiment, the in vitro antitumor activity of the compound was assessed by a 3H-thymidine uptake experiment. To this end, cells of the tumor cell lines MCF-7, SKBR3 and MDA-MB-468 were seeded at 4×10^3 cells per well in a 96 well plate in DMEM containing 10% FBS for 24 h followed by treatment with control media (0.1% DMSO) or media containing different concentration of the compound (5 μM, 10 μM, 20 μM, 40 μM or 80 μM final concentration of KSA-101696) and incubated for 72 h at 37° C. in 5% CO2. At about 60% confluency, cells were labelled by addition of 3H-thymidine (Amersham, Chiltern Hills, London, UK) at 1 μCi/well for 18 h before harvesting. 3H-thymidine uptake was measured using a 1450 Micro Beta PLUS liquid scintillation counter (Wallac, Waltham, Mass., USA).

MCF-7 = assay: Cell proliferation by 3H-thymidine uptake assay; assay type: cell-based; details: Homo sapiens, MCF7, 72 h, read-out: IC50, growth inhibition (3H-thymidine uptake)
Protocol: as §3, §4

SKBR3 = assay: Cell proliferation by 3H-thymidine uptake assay; assay type: cell-based; details: Homo sapiens, SK-BR-3, 72 h, read-out: IC50, growth inhibition (3H-thymidine uptake)
Protocol: as §3, §4

Structure (SMILES): COc1ccc(-c2csc3nc4ccccc4n23)cc1 [KSA-101696, 3-(4-methoxyphenyl)benzo[4,5]imidazo[2,1-b]thiazole]
- cell cycle distribution (MCF-7 cells): accumulation of cells in G2/M phase in a time-dependent manner
- signs of general toxicity [1]: no convulsions, CNS stimulation, diarrhea, increased urination, miosis or mydriasis
- weight loss [1]: no measurable weight loss
- Therapeutic ratio = LD50/ED50 ([2]; intraperitoneal): 40
- LD50 at 72 h ([2]; male, Swiss Webster Albino, mouse, in vivo, ip): 2000 mg/kg
- expression of colon cancer stem cell marker CD133 (HT-29 colon cancer cells): inhibition in the expression of the colon cancer stem cell marker CD133
- reduction in ALDH-positive cell percentage ([3]; 2.5 μM, two days): > 50%
- IC50 ([3]; Homo sapiens, SK-BR-3): ~2000 nM
- reduction (shrinking) of tumor volume (MDA-MB-468 tumors; 200 mg/kg intraperitoneal, three doses, mice bearing MDA-MB-468 tumors): 70%
- ED50 (MDA-MB-468 tumors; Mus musculus, MDA-MB-468, ip, intraperitoneal, read-out: ED50 (dose that shrinks the tumor volume by 50% at the end of treatment)): 50 mg/kg
- IC50 (MDA-MB-468): ~2500 nM
- IC50 (MCF-7): ~5 µM
- IC50 (SKBR3): 7.5 µM
